The source of these data is article PMC5045383 (Oncotarget, 2016).

SMILES strings stand for the structures.

For test [1], the system named is MOLM-14. Put plainly: Combination study TCS359 + MK2206. It is filed as cell-based, human. To be noted: TCS359 3.3 μM, MK2206 0.12 μM, alone or combined, 72 hours. The protocol: (§1) The FLT3-ITD-expressing lines MOLM-13, MOLM14 and MV4-11 were grown in 96-well culture plates (3000/well), respectively. Combination treatment with the FLT3 kinase inhibitor, TCS359, and with the Akt inhibitor, MK2206, was performed. Cell proliferation was determined after treatment with compounds for 72 hours. Cell viability was measured using the CellTiter–Glo assay (Promega, USA), data were normalized to control groups (DMSO) and represented by the mean of three independent measurements with standard error < 20%. CI index was calculated by Calcusyn software (Biosoft, version 2.1), using the Chou-Talalay method.

Test [2] relates to MOLM-13. Put plainly: Combination study TCS359 + MK2206. It is filed as cell-based, human. Particulars: TCS359 0.12 μM, MK2206 0.36 μM, alone or combined, 72 hours. The protocol: as §1
Test [3] deals with MV4-11. Put plainly: Combination study TCS359 + MK2206. Format: cell-based, human. To be noted: TCS359 0.12 μM, MK2206 0.12 μM, alone or combined, 72 hours. The protocol:
as §1

Test [4] concerns PF-382 (FLT3-wt). The test can be described thus: cells. Particulars: 72 hours. It is filed as cell-based. The protocol:
(§2) Cells were grown in 96-well culture plates (3000/well). […] Cell proliferation was determined after 72 hours drug treatment. […] Cell viability was measured with the CellTiter–Glo assay (Promega, USA), according to the manufacturer's instructions, and luminescence was measured in a multi-label reader (Envision, PerkinElmer, USA). […] GI50 values were calculated using Prism 5.0 (GraphPad Software, San Diego, CA).

For test [5], the system named is FLT3-ITD mediated signaling in MOLM14 and MV4-11 cell lines. The test can be described thus: Signaling pathway effect examination (immunoblot). Format: cell-based, human. Particulars: 1 μM, 4 hours. From the text:
Cells were then washed in PBS and lysed in cell lysis buffer. FLT3, Phospho-FLT3 (Tyr589/591), AKT, Phospho-AKT Ser473, Phospho-AKT Thr308, GSK-3β, Phospho-GSK-3β (Ser9), Phospho-FoxO1 (Thr24), FoxO1, PRAS40, Phospho-PRAS40 (Thr246), STAT5, Phospho-STAT5 (Tyr694), NF-ΚB-P65, Phospho-NF-ΚB-P65 (Ser536), P70S6K, Phospho-P70S6K Thr389, 4EBP1, Phospho-4EBP1 (Thr37/46), ERK, Phospho-p44/42MAPK (Erk1/2) (Thr202/Tyr204), C-Myc and GAPDH antibodies (Cell Signaling Technology) were used for immunoblotting.

For test [6], the system named is MOLM-13 (FLT3-ITD/wt). Put plainly: Cell proliferation assay (CellTiter-Glo). It is filed as cell-based, human. The protocol: (§3) The human AML cell lines MV4-11, U937, OCI-AML-3 were purchased from the American Type Culture Collection (ATCC) (Manassas, VA, USA). The FLT3-ITD-expressing lines, MOLM-13, MOLM-14, were provided by Dr. Scott Armstrong, Dana Farber Cancer Institute (DFCI), Boston, MA. The wt FLT3-expressing AML line, NB4 (KRAS A18D), was obtained from Dr. Gary Gilliland. […] MV4-11 was cultured in IDMEM media (Corning, USA) with 10% FBS and supplemented with 2% L-glutamine and 1% penicillin/streptomycin. OCI-AML-3 was cultured in α-MEM media (Corning, USA) with 10% FBS and supplemented with 2% L-glutamine and 1% penicillin/streptomycin. All cell lines were maintained in culture media at 37°C with 5% CO2.
as §2

The subject of test [7] is NB4 (FLT3-wt). The test can be described thus: Cell proliferation assay (CellTiter-Glo). Format: cell-based, human. To be noted: 72 hours. The protocol:
as §3, §2

The test system of test [8] is U937 (FLT3-wt). The test can be described thus: Cell proliferation assay (CellTiter-Glo). It is filed as cell-based, human. The protocol:
as §3, §2

Test [9] relates to OCI-AML-3 (FLT3-wt). The test can be described thus: Cell proliferation assay (CellTiter-Glo). It is filed as cell-based, human. To be noted: 72 hours. The protocol: as §3, §2
The subject of test [10] is MV4-11 (FLT3-ITD). The test can be described thus: Cell proliferation assay (CellTiter-Glo). Format: cell-based, human. The protocol: as §3, §2
Test [11] deals with MOLM-14 (FLT3-ITD/wt). The test can be described thus: Cell proliferation assay (CellTiter-Glo). It is filed as cell-based, human. The protocol:
as §3, §2

Test [12] relates to HL-60 (FLT3-wt). The test can be described thus: Cell proliferation assay (CellTiter-Glo). Format: cell-based, human. To be noted: 72 hours. The protocol:
as §2

Test [13] concerns SKM-1 (FLT3-wt). Put plainly: Cell proliferation assay (CellTiter-Glo). Format: cell-based, human. To be noted: 72 hours. The protocol: as §2
Test [14] deals with MOLM14, MV4-11 cells. Put plainly: Apoptosis effect examination (PARP, Caspase-3 immunoblot). Format: cell-based, human. Particulars: at 1 μM, 24 hours. The source says:
Cells were then washed in PBS and lysed in cell lysis buffer. PARP, Caspase-3, GAPDH antibodies (Cell signaling Technology) were used for immunoblotting.

Test [15] concerns MOLM14. The test can be described thus: Cell cycle analysis (PI, flow cytometry). It is filed as cell-based, human. To be noted: MOLM14, 1 μM, 24 hours. The protocol:
(§4) The cells were fixed in 70% cold ethanol and incubated at −20°C overnight, then stained with PI/RNase staining buffer (BD Pharmingen). Flow cytometry was performed using a FACS Calibur (BD), and results were analyzed by ModFit software.

For test [16], the system named is MV4-11. Put plainly: Cell cycle analysis (PI, flow cytometry). Format: cell-based, human. Particulars: MV4-11, 1 μM, 24 hours. The protocol: as §4
For test [17], the system named is FLT3-ITD/FLT3 wt-expressing MOLM13 and MOLM14 cells. The protocol: as §2
The mark [18] stands for this setting: Homo sapiens, read-out: Relative activity(%).
Setting [19] is: Homo sapiens, MOLM-13 (FLT3-ITD/wt), 72 hours, Table 1.
The mark [20] stands for this setting: Homo sapiens, MV4-11 (FLT3-ITD), 72 hours, Table 1.
Setting [21] is: Homo sapiens, MOLM-14 (FLT3-ITD/wt), 72 hours, Table 1.
Where [22] appears, read: MOLM-13 (FLT3-ITD/wt), 72 hours, Table 1.
The mark [23] stands for this setting: MV4-11 (FLT3-ITD), 72 hours, Table 1.

Take `NC1(c2ccc(-c3nc4ccn5c(=O)[nH]nc5c4cc3-c3ccccc3)cc2)CCC1` [MK2206]: the activity at 0.12 µM in test [1] (setting [18]) turned out to be 65.5%; in [3] (setting [18]) it was 88.6%. In test [2] (setting [18]), the activity at 0.36 µM came to 59.3%. Also, the GI50 in test [4] (Homo sapiens) is 610 nM; in test [6] (setting [19]), 100 nM; in test [7] (Homo sapiens), 210 nM; in test [8] (Homo sapiens, U-937, 72 hours), 7200 nM; in test [9] (Homo sapiens), 1400 nM; in test [10] (setting [20]) it was 5200 nM. The results for the GI50 in [11] (setting [21]), in test [12] (Homo sapiens) and in test [13] (Homo sapiens) were 320 nM, 160 nM and 4600 nM, respectively. Further, the “effect on FLT3 signaling pathway (pFLT3, pSTAT5, c-MYC)” value in test [5] is given as “did not affect this signaling pathway”. Besides, in test [14], the apoptosis induction entry is on record as “did not induce apoptosis”. The “%G0–G1” value in [15] is given as 63.9%; in test [16], 64.92%. Besides, the “%G2–M” value in test [15] is on record as 7.3%; in test [16], 7.69%. In addition, the “%S” value was 28.81% in test [15] and 27.39% in test [16].

With `COc1ccc(C(=O)Nc2sc3c(c2C(N)=O)CCCC3)cc1OC` [TCS359], the “Relative activity(%)” value in [1] turned out to be 68.4%; in test [2] it was 69.7%; in test [3] it was 98.9%. Also, the concentration for 50% growth inhibition (GI50) in test [4] was more than 10000 nM; in test [6] (setting [22]), 560 nM; in [6] (MOLM-13+FL(1 ng/mL)), more than 10000 nM; in [6] (MOLM-13+FL(5 ng/mL)), more than 10000 nM; in test [6] (MOLM-13+FL(10 ng/mL)), more than 10000 nM; in test [6] (MOLM-13, no FLT3 ligand, Table 3), 420 nM. The GI50 was more than 10000 nM in test [7]; more than 10000 nM in test [8] (72 hours); more than 10000 nM in test [9]; 680 nM in test [10] (setting [23]); 1400 nM in [10] (MV4-11+FL(10 ng/mL)); 490 nM in test [10] (MV4-11, no FLT3 ligand, Table 3). The GI50 in [11] (MOLM-14+FL(1 ng/mL)) is more than 10000 nM; in test [11] (MOLM-14+FL(5 ng/mL)), more than 10000 nM; in test [11] (MOLM-14+FL(10 ng/mL)), more than 10000 nM; in test [12], 540 nM; in test [13], more than 10000 nM. Moreover, the “fold loss of activity with FLT3 ligand stimulation” value in test [17] is 6-15 fold. The apoptosis induction entry in test [14] is recorded as “did not induce apoptosis”. Further, the “%G0–G1” value was found to be 55.04% in [15] and 73.62% in test [16]. Besides, the “%G2–M” value turned out to be 9.08% in test [15] and 2.57% in [16]. Moreover, the figures for the “%S” value in [15] and in [16] were 35.88% and 23.81%, respectively.

As to `NC1(C(=O)N[C@@H](CCO)c2ccc(Cl)cc2)CCN(c2ncnc3[nH]ccc23)CC1` [AZD5363], the concentration for 50% growth inhibition (GI50) in test [4] (Homo sapiens) was 480 nM; in test [6] (setting [19]) it was 160 nM; in test [7] (Homo sapiens), 930 nM; in [8] (Homo sapiens, U-937, 72 hours) it was 610 nM; in test [9] (Homo sapiens) it was 1200 nM; in test [10] (setting [20]), 670 nM. Besides, the GI50 in [11] (setting [21]) is 500 nM; in test [12] (Homo sapiens), 370 nM; in test [13] (Homo sapiens), more than 10000 nM.

For `CC(C)NC[C@@H](C(=O)N1CCN(c2ncnc3c2[C@H](C)C[C@H]3O)CC1)c1ccc(Cl)cc1` [GDC0068], the GI50 in test [4] (Homo sapiens) was 440 nM; in test [6] (setting [19]), 290 nM; in test [7] (Homo sapiens), 5900 nM; in test [8] (Homo sapiens, U-937, 72 hours), 590 nM; in test [9] (Homo sapiens) it was 1100 nM; in [10] (setting [20]), 2100 nM. Moreover, the GI50 in test [11] (setting [21]) is 850 nM; in test [12] (Homo sapiens) it was 310 nM; in test [13] (Homo sapiens), more than 10000 nM.

Turning to `CCn1c(-c2nonc2N)nc2c(C#CC(C)(C)O)ncc(OC[C@H]3CCCNC3)c21` [GSK690693], the concentration for 50% growth inhibition (GI50) is 240 nM in [4] (Homo sapiens); 280 nM in [6] (setting [19]); 220 nM in test [7] (Homo sapiens); 5100 nM in [8] (Homo sapiens, U-937, 72 hours); more than 10000 nM in test [9] (Homo sapiens); 5200 nM in [10] (setting [20]). Besides, the 50% growth inhibitory concentration (GI50) is 540 nM in test [11] (setting [21]), 160 nM in test [12] (Homo sapiens) and more than 10000 nM in test [13] (Homo sapiens). Moreover, the entries for the “%G0–G1” value in test [15] and in test [16] were 54.52% and 60.48%, respectively. Moreover, the “%G2–M” value in test [15] was determined as 9.78%; in test [16] it was 7%. The “%S” value in test [15] was 35.7%; in test [16], 32.52%.

For `NC1(Cc2ccc(Cl)cc2)CCN(c2ncnc3[nH]ccc23)CC1` [CCT128930], the GI50 is 1300 nM in [4]; 650 nM in [6] (setting [22]); 2500 nM in test [7]; 4100 nM in test [8] (72 hours); 2200 nM in test [9]; 1000 nM in test [10] (setting [23]). Further, the GI50 in test [11] (MOLM-14 (FLT3-ITD/wt), 72 hours, Table 1) amounted to 1100 nM; in test [12], 1500 nM; in [13] it was 4300 nM.
